Experimental data as given in patent US8912120B2, “Herbicidal compositions comprising 4-amino-3-chloro-5-fluoro-6-(4-chloro-2-fluoro-3-methoxyphenyl) pyridine-2-carboxylic acid or a derivative thereof and synthetic auxin herbicides” (Dow AgroSciences, LLC., priority 2012, dated 2014).
Like-named read-outs stand apart in the source and are kept apart here.

What was measured:
[1] = tested on: SCPMA; assay: Example II: in-water applied herbicidal mixtures, transplanted paddy rice, SCPMA; type: in vivo
Experimental: (§1) The prepared mud was dispensed in 365 mL aliquots into 16-ounce (oz.) non-perforated plastic pots with a surface area of 86.59 square centimeters (cm^2) leaving a headspace of 3 centimeters (cm) in each pot Mud was allowed to dry overnight prior to planting or transplanting. Rice seeds were planted in Sun Gro MetroMix® 306 planting mixture, which typically has a pH of 6.0 to 6.8 and an organic matter content of about 30 percent, in plastic plug trays. Seedlings at the second or third leaf stage of growth were transplanted into 840 mL of mud contained in 32-oz. non-perforated plastic pots with a surface area of 86.59 cm^2 4 days prior to herbicide application. […] Nutrients were added as Osmocote® (19:6:12, N:P:K^+ minor nutrients) at 2 g per 16-oz. pot and 4 g per 32-oz. pot.
(§2) Applications were made by injecting with a pipetter appropriate amounts of the application solutions, individually and sequentially, into the aqueous layer of the paddy. Control plants were treated in the same manner with the solvent blank. Applications were made so that all treated plant material received the same concentrations of acetone and crop oil concentrate.

[2] = tested on: LEFCH; assay: Example II: in-water applied herbicidal mixtures, transplanted paddy rice, LEFCH; type: in vivo, Leptochloa chinensis (Chinese sprangletop); conditions: 25 DAA; 70 gae/ha
Experimental: as §1, §2

[3] = tested on: LEFCH; assay: Example I: postemergence foliar-applied herbicidal mixtures, direct seeded rice, LEFCH; type: in vivo, Leptochloa chinensis (Chinese sprangletop); conditions: 280 gae/ha
[4] = tested on: ECHCG; assay: Example I: postemergence foliar-applied herbicidal mixtures, direct seeded rice, ECHCG
[5] = tested on: ECHOR; assay: Example II: in-water applied herbicidal mixtures, transplanted paddy rice, ECHOR; type: in vivo, Echinochloa oryzoides (early watergrass); conditions: Echinochloa oryzoides; for pest or weed control at 70 g/ha: 70 gae/ha; for pest or weed control at 140 g/ha: 140 gae/ha
Experimental: as §1, §2

[6] = tested on: ECHCG; assay: Example II: in-water applied herbicidal mixtures, transplanted paddy rice, ECHCG; type: in vivo, Echinochloa crus-galli (barnyardgrass)
Experimental: as §1, §2

[7] = tested on: SCPJU; assay: Example II: in-water applied herbicidal mixtures, transplanted paddy rice, SCPJU; type: in vivo, Schoenoplectus juncoides (Japanese bulrush); conditions: 25 DAA
Experimental: as §1, §2

[8] = tested on: CYPDI; assay: Example I: postemergence foliar-applied herbicidal mixtures, direct seeded rice, CYPDI; type: in vivo, Cyperus difformis (smallflower umbrella sedge)
Experimental: (§7) The soil matrix was contained in plastic pots with a volume of 1 quart and a surface area of 83.6 square centimeters (cm^2). […] The plants were grown for 8-22 days in a greenhouse with an approximate 14 h photoperiod which was maintained at about 29° C. during the day and 26° C. during the night. Nutrients (Peters Excel® 15-5-15 5-Ca 2-Mg and iron chelate) were applied in the irrigation solution as needed and water was added on a regular basis. Supplemental lighting was provided with overhead metal halide 1000-Watt lamps as necessary. The plants were employed for testing when they reached the first through fourth true leaf stage.
(§8) Treatments consisted of the acid or esters of 4-amino-3-chloro-5-fluoro-6-(4-chloro-2-fluoro-3-methoxy-phenyl)pyridine-2-carboxylic acid (Compound A), each formulated as an SC (suspension concentrate), and various herbicidal components alone and in combination. Forms of compound A were applied on an acid equivalent basis.
(§9) For treatments comprised of formulated compounds, measured amounts of compounds were placed individually in 25 mL glass vials and diluted in a volume of 1.25% (v/v) Agri-Dex® crop oil concentrated to obtain 12× stock solutions. […] Application solutions were prepared by adding an appropriate amount of each stock solution (e.g., 1 mL) and diluted to the appropriate final concentrations with the addition of 10 mL of an aqueous mixture of 1.25% (v/v) crop oil concentrate so that the final spray solutions contained 1.25+/−0.05% (v/v) crop oil concentrate.
(§10) All stock solutions and applications solutions were visually inspected for compound compatibility prior to application. Spray solutions were applied to the plant material with an overhead Mandel track sprayer equipped with a 8002E nozzles calibrated to deliver 187 L/ha over an application area of 0.503 m^2 at a spray height of 18 to 20 inches (46 to 50 cm) above average plant canopy height. Control plants were sprayed in the same manner with the solvent blank.
(§11) The treated plants and control plants were placed in a greenhouse as described above and watered by sub-irrigation to prevent wash-off of the test compounds. After approximately 3 weeks, the condition of the test plants as compared with that of the untreated plants was determined visually and scored on a scale of 0 to 100 percent where 0 corresponds to no injury or growth inhibition and 100 corresponds to complete kill.
(§12) Colby's equation was used to determine the herbicidal effects expected from the mixtures (Colby, S. R. 1967. Calculation of the synergistic and antagonistic response of herbicide combinations. Weeds 15:20-22).
(§13) The following equation was used to calculate the expected activity of mixtures containing two active ingredients, A and B: Expected=A+B−(A×B/100) […]

[9] = tested on: ECHCO; assay: Example I: postemergence foliar-applied herbicidal mixtures, direct seeded rice, ECHCO
Experimental: as §7, §8, §9, §10, §11, §12
(§14) The following equation was used to calculate the expected activity of mixtures containing two active ingredients, A and B: Expected=A+B−(A×B/100)
(§15) A=observed efficacy of active ingredient A at the same concentration as used in the mixture.
(§16) B=observed efficacy of active ingredient B at the same concentration as used in the mixture.

[10] = tested on: AMARE; assay: Example IV: postemergence foliar-applied herbicidal mixtures, weed control in cereal crops in the greenhouse, AMARE; type: in vivo, Amaranthus retroflexus (redroot pigweed); conditions: alone, 140 gai/ha, 20-22 days
Experimental: (§3) Seeds of the desired test plant species were planted in Sun Gro MetroMix 306 planting mixture, which typically has a pH of 6.0 to 6.8 and an organic matter content of about 30 percent, in plastic pots with a surface area of 103.2 square centimeters (cm^2). […] The plants were grown for 7-36 days in a greenhouse with an approximate 14 hour photoperiod which was maintained at about 18° C. during the day and 17° C. during the night.
(§4) Spray solutions of the second cereal herbicide and experimental compound mixtures were prepared by adding the stock solutions to the appropriate amount of dilution solution to form 12 mL spray solution with active ingredients in two- and three-way combinations.

[11] = tested on: ISCRU; assay: Example I: postemergence foliar-applied herbicidal mixtures, direct seeded rice, ISCRU; type: in vivo, Ischaemum rugosum (saramollagrass)
Experimental: as §7, §8, §9, §10, §11, §12, §14, §15, §16

[12] = tested on: VIOTR; assay: Example IV: postemergence foliar-applied herbicidal mixtures, cereal crops, VIOTR; type: in vivo, Viola tricolor (wild pansy); conditions: alone, 140 gai/ha, foliar, 20-22 days
Experimental: as §3, §4

[13] = tested on: DIGSA; assay: Example I: postemergence foliar-applied herbicidal mixtures, direct seeded rice, DIGSA; conditions: 560 gai/ha
Experimental: as §7, §8, §9, §10, §11, §12, §14, §15, §16

[14] = tested on: CYPES; assay: Example I: postemergence foliar-applied herbicidal mixtures, direct seeded rice, CYPES; type: in vivo, Cyperus esculentus (yellow nutsedge)
Experimental: as §7, §8, §9, §10, §11, §12, §13

[15] = tested on: CYPIR; assay: Example II: in-water applied herbicidal mixtures, transplanted paddy rice, CYPIR; type: in vivo, Cyperus iria L. (flatsedge; conditions: 21 DAA; 560 gai/ha
[16] = tested on: POLCO; assay: Example IV: postemergence foliar-applied herbicidal mixtures, cereal crops, POLCO; type: in vivo, Polygonum convolvulus (wild buckwheat); conditions: alone, 140 gai/ha, foliar, 20-22 days
Experimental: as §3, §4

[17] = tested on: CYPIR; assay: Example I: postemergence foliar-applied herbicidal mixtures, direct seeded rice, CYPIR; type: in vivo, Cyperus iria (rice flatsedge)
Experimental: as §7, §8, §9, §10, §11, §12, §14, §15, §16

[18] = tested on: CIRAR; assay: Example V: postemergence herbicidal activity of mixtures in forage crops, CIRAR; type: in vivo, Cirsium arvense (Canada thistle); conditions: alone, 70 gae/ha, foliar, approximately 21 days
Experimental: as §3, with “Seeds or root cuttings” for “Seeds”, “MetroMix®” for “MetroMix”, “126.6” for “103.2”, “14-60” for “7-36”, “approximately 28°” for “about 18°”, “24°” for “17°”
(§5) Spray solutions of the second herbicide or experimental compound mixtures were prepared by adding the stock solutions to the appropriate amount of dilution solution to form 12 mL spray solution with active ingredients in two-way combinations.

[19] = tested on: TRFRE; assay: Example V: postemergence herbicidal activity of mixtures in forage crops, TRFRE; type: in vivo, Trifolium repens (white clover); conditions: alone, foliar, approximately 21 days
Experimental: as §3, with “Seeds or root cuttings” for “Seeds”, “MetroMix®” for “MetroMix”, “126.6” for “103.2”, “14-60” for “7-36”, “approximately 28°” for “about 18°”, “24°” for “17°”
as §5

[20] = tested on: SOOSS; assay: Example V: postemergence herbicidal activity of mixtures in forage crops, SOOSS; type: in vivo, Solidago L. spec. (goldenrod); conditions: alone, 70 gae/ha, foliar, approximately 21 days
Experimental: as §3, with “Seeds or root cuttings” for “Seeds”, “MetroMix®” for “MetroMix”, “126.6” for “103.2”, “14-60” for “7-36”, “approximately 28°” for “about 18°”, “24°” for “17°”
as §5

[21] = tested on: CENMA; assay: Example V: postemergence herbicidal activity of mixtures in forage crops, CENMA; type: in vivo, Centaurea maculosa (spotted knapweed); conditions: alone, foliar, approximately 21 days
Experimental: as §3, with “Seeds or root cuttings” for “Seeds”, “MetroMix®” for “MetroMix”, “126.6” for “103.2”, “14-60” for “7-36”, “approximately 28°” for “about 18°”, “24°” for “17°”
as §5

[22] = tested on: SONAR; assay: Example V: postemergence herbicidal activity of mixtures in forage crops, SONAR; type: in vivo, Sonchus arvensis (field sowthistle); conditions: alone, foliar, approximately 21 days
Experimental: as §3, with “Seeds or root cuttings” for “Seeds”, “MetroMix®” for “MetroMix”, “126.6” for “103.2”, “14-60” for “7-36”, “approximately 28°” for “about 18°”, “24°” for “17°”
as §5

[23] = tested on: ELEIN; assay: Example III: postemergence foliar-applied herbicidal mixtures, weeds common to row crops such as corn and soybeans (greenhouse), ELEIN; type: in vivo, Eleusine indica (goosegrass); conditions: 17 DAA
Experimental: (§6) The plants were grown for 7-31 days (d) in a greenhouse with an approximate 15 hour (h) photoperiod which was maintained at about 23-29° C. during the day and 22-28° C. during the night.

[24] = tested on: SORHA; assay: Example III: postemergence foliar-applied herbicidal mixtures, row crop weeds, SORHA; type: in vivo, Sorghum halepense (johnsongrass); conditions: 13 DAA; 7.5 gae/ha
Experimental: as §6

[25] = 70 gae/ha (Compound A Benzyl Ester rate not given)
[26] = 140 gae/ha (Compound A Benzyl Ester rate not given)
[27] = 456 h, read-out: Visual Weed Control (%) Obs, 19 DAA
[28] = 600 h, read-out: Visual Weed Control (%) Obs, 25 DAA

SMILES: CCCCCCC(C)OC(=O)COc1nc(F)c(Cl)c(N)c1Cl (stereo not drawn) [Fluroxypyr MHE, 1-methylheptyl 2-[(4-amino-3,5-dichloro-6-fluoro-2-pyridinyl)oxy]acetate, reference compound]
- Visual Weed Control (%) Obs ([1]; 22 DAA, 149 gae/ha): 30%
- Visual Injury (%) Obs [2]: 20%
- Visual Weed Control (%) Obs [2]: 20%
- Visual Weed Control (%) - 19 DAA LEFCH Obs [3]: 28%
- Visual Weed Control (%) - 21 DAA ECHCG Obs ([4]; 70 gae/ha): 0%
- Visual Weed Control (%) - 21 DAA ECHCG Obs [4, 25]: 0%
- Visual Weed Control (%) - 21 DAA ECHCG Obs ([4]; 140 gae/ha): 0%
- Visual Weed Control (%) - 21 DAA ECHCG Obs [4, 26]: 0%
- Visual Weed Control (%) - 19 DAA ECHCG Obs ([4]; 280 gae/ha): 25%
- pest or weed control at 70 g/ha [5, 27]: 0%
- pest or weed control at 140 g/ha [5, 27]: 0%
- pest or weed control at 70 g/ha [5, 28]: 0%
- pest or weed control at 140 g/ha [5, 28]: 0%
- Visual Weed Control (%) Obs ([6]; 19 DAA, 70 gae/ha): 0%
- Visual Weed Control (%) Obs ([6]; 19 DAA, 140 gae/ha): 0%
- Visual Weed Control (%) Obs ([6]; 19 DAA, 280 gae/ha): 0%
- Visual Weed Control (%) Obs ([6]; 25 DAA, 140 gae/ha): 0%
- Visual Weed Control (%) Obs ([7]; 70 gae/ha): 20%
- Visual Weed Control (%) Obs ([7]; 140 gae/ha): 30%
- Visual Weed Control (%) - 21 DAA CYPDI Obs ([8]; 70 gae/ha): 15%
- Visual Weed Control (%) - 21 DAA CYPDI Obs ([8]; 140 gae/ha): 80%
- Visual Weed Control (%) - 21 DAA ECHCO Obs ([9]; 70 gae/ha): 0%
- Visual Weed Control (%) - 21 DAA ECHCO Obs [9, 25]: 0%
- Visual Weed Control (%) - 21 DAA ECHCO Obs ([9]; 140 gae/ha): 0%
- Visual Weed Control (%) - 21 DAA ECHCO Obs [9, 26]: 0%

SMILES: O=C(O)c1c(Cl)ccc2cc(Cl)cnc12 [Quinclorac, 3,7-dichloro-8-quinolinecarboxylic acid]
- Visual Weed Control (%) Obs ([1]; 20 DAA, 560 gai/ha): 0%
- AMARE Ob (observed value) [10]: 27%
- Visual Weed Control (%) - 21 DAA ISCRU Obs ([11]; 140 gai/ha): 0%
- Visual Weed Control (%) - 21 DAA ISCRU Obs ([11]; 280 gai/ha): 0%
- Visual Weed Control (%) - 21 DAA ISCRU Obs ([11]; 560 gai/ha): 0%
- VIOTR Ob (observed value) [12]: 0%
- Visual Weed Control (%) - 20 DAA DIGSA Obs [13]: 8%
- Visual Weed Control (%) - 21 DAA DIGSA Obs [13]: 8%
- Visual Weed Control (%) - 21 DAA CYPES Obs ([14]; 70 gai/ha): 0%
- Visual Weed Control (%) - 21 DAA CYPES Obs ([14]; 140 gai/ha): 0%
- Visual Weed Control (%) - 21 DAA CYPES Obs ([14]; 280 gai/ha): 0%
- Visual Weed Control (%) - 21 DAA ECHCG Obs ([4]; 70 gai/ha): 15%
- Visual Weed Control (%) - 21 DAA ECHCG Obs ([4]; 140 gai/ha): 30%
- Visual Weed Control (%) - 21 DAA ECHCG Obs ([4]; 280 gai/ha): 30%
- pest or weed control at 560 g/ha ([5]; 480 h, 20 DAA, 560 gai/ha, read-out: Visual Weed Control (%) Obs): 20%
- Visual Weed Control (%) Obs [15]: 0%
- POLCO Ob (observed value) [16]: 3%
- Visual Weed Control (%) - 21 DAA CYPIR Obs ([17]; 70 gai/ha): 0%
- Visual Weed Control (%) - 21 DAA CYPIR Obs ([17]; 140 gai/ha): 0%
- Visual Weed Control (%) - 21 DAA CYPIR Obs ([17]; 280 gai/ha): 0%

SMILES: CCCCCCC(C)OC(=O)COc1nc(F)c(Cl)c(N)c1Cl (stereo not drawn) [Fluroxypyr ME]
- CIRAR Obs (observed value) [18]: 10%
- TRFRE Obs (observed value) ([19]; 35 gae/ha): 15%
- TRFRE Obs (observed value) ([19]; 70 gae/ha): 20%
- SOOSS Obs (observed value) [20]: 50%
- CENMA Obs (observed value) ([21]; 35 gae/ha): 0%
- CENMA Obs (observed value) ([21]; 70 gae/ha): 0%
- SONAR Obs (observed value) ([22]; 35 gae/ha): 0%
- SONAR Obs (observed value) ([22]; 70 gae/ha): 15%

SMILES: COc1c(Cl)ccc(-c2cc(N)c(Cl)c(C(=O)[O-])n2)c1F.[K+] [Halauxifen K^+ Salt]
- Visual Weed Control (%) Obs ([23]; 3.75 gae/ha): 30%
- Visual Weed Control (%) Obs ([23]; 7.5 gae/ha): 40%
- Visual Weed Control (%) Obs ([23]; 15 gae/ha): 50%
- Visual Weed Control (%) Obs [24]: 0%
